Like-named read-outs stand apart in the source and are kept apart here.
Test system: phosphorylation of Serine-9 residue in Glycogen Synthase Kinase-3beta as surrogate marker of cellular PKB (Akt) activity
Experiment: In vitro MDA-MB-468 human breast adenocarcinoma GSK-3 phosphorylation assay
Type: cell-based
Excerpt: This assay determines the ability of test compounds to inhibit phosphorylation of Serine-9 residue in Glycogen Synthase Kinase-3beta (GSK-313) as a surrogate marker of cellular PKB (Akt) activity, as assessed using Acumen Explorer Fluorescent Plate-Reader technology. A MDA-MB-468 human breast adenocarcinoma cell line (LGC Promochem, Teddington, Middlesex, UK, Catalogue No. HTB-132) was routinely maintained in Dulbecco's modified Eagle's growth medium (DMEM; Invitrogen Limited, Paisley, UK Catalogue No. 11966-025) containing 10% heat-inactivated foetal calf serum (FCS; Sigma, Poole, Dorset, UK, Catalogue No. F0392) and 1% L-glutamine (Gibco, Catalogue No. 25030-024) at 37° C. with 5% CO2 up to a confluency of 70-90%.
For the phosphorylation assay, the cells were detached from the culture flask using Trypsin-EDTA (Invitrogen Limited, Catalogue No. 25300-062) and seeded into the wells of a black transparent-bottom Corning Costar Polystyrene 96 well plate (Fisher Scientific UK, Loughborough, Leicestershire, UK; Catalogue No. 3904 and DPS-130-020K) at a density of 5000 cells per well in 100 μl of complete growth media. The cells were incubated overnight at 37° C. with 5% CO2 to allow them to adhere.
On day 2, the cells were treated with test compounds and incubated for 2 hours at 37° C. with 5% CO2. Test compounds were prepared as 10mM stock solutions in DMSO and dosed directly to required concentration into test wells using non-contact (acoustic dispensing of multiple 2.5 nl droplets directly into assay wells) ECHO dosing technology (Labcyte Inc Sunnyvale, Calif., USA). Each plate contained control wells without test compound.
20 μl of fixing buffer (Phosphate Buffered Saline (PBS) containing 10% formaldehyde; Sigma; Catalogue No. F1635) was then added to each well to give a final well concentration 1.6%. Plates were then incubated for 30 minutes at room temperature prior to the fixative being removed. Each well was washed once with 250 μl of PBS and then 50 μl PBS added to each well. PBS was then aspirated and cells permeabilised and blocked by incubating each well with 50 μl of permeabilisation/blocking buffer (PBS containing 0.5% Tween 20 (Sigma; Catalogue No. P5927) and 5% Marvel Milk Powder (Andrews Pharmacy Ltd, Macclesfield, Cheshire, UK; Catalogue No. APC100199)) for 1 hour at room temperature prior to staining.
Following removal of Perm/Block buffer, 50 μl of primary anti-phospho-GSK-3β antibody (Cell Signalling Technology (New England Biolabs (Uk) Ltd.), Hitchin, Hertfordshire, UK; Catalogue No.9336 diluted 1:400 in Blocking buffer (PBS containing 5% Marvel and 0.05% Tween/Polysorbate 20) was added to each well and incubated overnight at 4° C.
Each well was washed three times in 250 μl of wash buffer (PBS containing 0.05% polysorbate 20), and cells incubated for 1 hour at room temperature with 50 μl of secondary fluorescently-labelled anti-rabbit Alexa Fluor 488 antibody (Molecular Probes, Invitrogen Limited, Catalogue No. A11008) diluted 1:750 in blocking buffer. Plates were washed three times in 250 μl of wash buffer and stored containing 50 μl of PBS at 4° C. until required.
Plates were analysed using an Acumen Explorer Plate-reader to quantify level of fluorescent signal that represents quantity of phosphorylated-GSK-313.
IC50 calculation—IC50 is the concentration of compound required to give 50% effect over the range of activity affected by the compound, between maximum (no compound) and minimum (excess level of compound) response control data. IC50 values were determined by fitting background corrected, dose response assay data to a 4 parameter logistic curve fit equation model with the minimum response set to zero. This was done using an in-house developed algorithm within the Origin graphing software package (OriginLab Corporation, Northampton, Mass., USA). […]

[1] = MDA-MB-468 cells, 2 hours compound incubation, mean IC50, read-out: Cell pGSK3b IC50
[2] = MDA-MB-468, 2 h, read-out: Cell pGSK3b IC50

Compound	IC50 [1] [nM]	IC50 [2] [nM]
NC1(c2nc3c(O)cccc3[nH]2)CCN(c2ncnc3[nH]ccc23)CC1 [Example 11, 2-[4-Amino-1-(7H-pyrrolo[2,3-d]pyrimidin-4-yl)-piperidin-4-yl]-1H-benzoimidazol-4-ol]	160	–
NC1(c2nc3ccc(Cl)cc3[nH]2)CCN(c2ncnc3[nH]ccc23)CC1 [Example 13, 4-(6-chloro-1H-benzoimidazol-2-yl)-1-(7H-pyrrolo[2,3-d]pyrimidin-4-yl)-piperidin-4-ylamine]	660	–
NC1(c2nc3ccc(Cl)cc3[nH]2)CCN(c2ncnc3[nH]cnc23)CC1 [Example 21, 4-(6-chloro-1H-benzoimidazol-2-yl)-1-(9H-purin-6-yl)-piperidin-4-ylamine]	250	–
NC1(c2nc3ccc(Cl)cc3[nH]2)CCN(c2ncnc3[nH]ncc23)CC1 [Example 22, 4-(6-chloro-1H-benzoimidazol-2-yl)-1-(1H-pyrazolo[3,4-d]pyrimidin-4-yl)-piperidin-4-ylamine]	770	–
NCC1(c2nc3ccccc3[nH]2)CCN(c2ncnc3[nH]ccc23)CC1 [Example 34D, C-[4-(1H-Benzoimidazol-2-yl)-1-(7H-pyrrolo[2,3-d]pyrimidin-4-yl)-piperidin-4-yl]-methylamine]	86	–
NC1(c2nc3c(-c4ccccc4)cccc3[nH]2)CCN(c2ncnc3[nH]ccc23)CC1 [Example 42, 4-(4-Phenyl-1H-benzoimidazol-2-yl)-1-(7H-pyrrolo[2,3-d]pyrimidin-4-yl)-piperidin-ylamine]	< 31	–
NCC1(c2nc3ccccc3[nH]2)CCN(c2ncnc3[nH]cnc23)CC1 [Example 44, (4-(1H-benzo[d]imidazol-2-yl)-1-(9H-purin-6-yl)piperidin-4-yl)methanamine]	120	–
NCC1(c2nc3ccccc3[nH]2)CCN(c2ncnc3[nH]cc(Cl)c23)CC1 [Example 45, (4-(1H-benzo[d]imidazol-2-yl)-1-(5-chloro-7H-pyrrolo[2,3-d]pyrimidin-4-yl)piperidin-4-yl)methanamine]	87	–
NCC1(c2nc3ccccc3[nH]2)CCN(c2ncnc3[nH]nc(Br)c23)CC1 [Example 46, (4-(1H-benzo[d]imidazol-2-yl)-1-(3-bromo-1H-pyrazolo[3,4-d]pyrimidin-4-yl)piperidin-4-yl)methanamine]	97	–
Cc1c[nH]c2ncnc(N3CCC(CN)(c4nc5ccccc5[nH]4)CC3)c12 [Example 47, (4-(1H-benzo[d]imidazol-2-yl)-1-(5-methyl-7H-pyrrolo[2,3-d]pyrimidin-4-yl)piperidin-4-yl)methanamine]	170	–
NCC1(c2nc3ccccc3[nH]2)CCN(c2ncnc3[nH]cc(Br)c23)CC1 [Example 48, (4-(1H-benzo[d]imidazol-2-yl)-1-(5-bromo-7H-pyrrolo[2,3-d]pyrimidin-4-yl)-piperidin-4-yl)methanamine]	210	–
NC1(c2nc3ccc(C(F)(F)F)cc3[nH]2)CCN(c2ncnc3[nH]ccc23)CC1 [Example 50, 1-(7H-Pyrrolo[2,3-d]pyrimidin-4-yl)-4-[6-(trifluoromethyl)-1H-benzimidazol-2-yl]piperidin-4-amine]	480	–
Cc1ccc2nc(C3(N)CCN(c4ncnc5[nH]ccc45)CC3)[nH]c2c1C [Example 51, 4-(6,7-dimethyl-1H-benzimidazol-2-yl)-1-(7H-pyrrolo[2,3-d]pyrimidin-4-yl)piperidin-4-amine]	800	–
NC1(c2nc3cc(F)c(Cl)cc3[nH]2)CCN(c2ncnc3[nH]ccc23)CC1 [Example 52, 4-(6-chloro-5-fluoro-1H-benzimidazol-2-yl)-1-(7H-pyrrolo[2,3-d]pyrimidin-4-yl)piperidin-4-amine]	1300	–
NC1(c2nc3cc(Cl)c(Cl)cc3[nH]2)CCN(c2ncnc3[nH]ccc23)CC1 [Example 53, 4-(5,6-Dichloro-1H-benzoimidazol-2-yl)-1-(7H-pyrrolo[2,3-d]pyrimidin-4-yl)-piperidin-4-ylamine]	1800	–
Cn1c(C2(N)CCN(c3ncnc4[nH]ccc34)CC2)nc2ccccc21 [Example 54, 4-(1-methylbenzimidazol-2-yl)-1-(7H-pyrrolo[2,3-d]pyrimidin-4-yl)piperidin-4-amine]	> 2600	–
NC1(c2nc3cccnc3[nH]2)CCN(c2ncnc3[nH]ccc23)CC1 [Example 55, 4-(3H-imidazo[5,4-b]pyridin-2-yl)-1-(7H-pyrrolo[2,3-d]pyrimidin-4-yl)piperidin-4-amine]	2900	–
NC1(c2nc3cc(-n4ccnc4)ccc3[nH]2)CCN(c2ncnc3[nH]ccc23)CC1 [Example 56, 4-(5-imidazol-1-yl-1H-benzimidazol-2-yl)-1-(7H-pyrrolo[2,3-d]pyrimidin-4-yl)piperidin-4-amine]	5500	–
Cc1cc2[nH]c(C3(N)CCN(c4ncnc5[nH]ccc45)CC3)nc2cc1Cl [Example 57, 4-(5-chloro-6-methyl-1H-benzo[d]imidazol-2-yl)-1-(7H-pyrrolo[2,3-d]pyrimidin-4-yl)piperidin-4-amine]	> 2100	–
Cc1cc(Cl)cc2nc(C3(N)CCN(c4ncnc5[nH]ccc45)CC3)[nH]c12 [Example 58, 4-(5-Chloro-7-methyl-1H-benzo[d]imidazol-2-yl)-1-(7H-pyrrolo[2,3-d]pyrimidin-4-yl)piperidin-4-amine]	1400	–
CCN(CC)S(=O)(=O)c1ccc2[nH]c(C3(N)CCN(c4ncnc5[nH]ccc45)CC3)nc2c1 [Example 59, 2-(4-amino-1-(7H-pyrrolo[2,3-d]pyrimidin-4-yl)piperidin-4-yl)-N,N-diethyl-1H-benzo[d]imidazole-5-sulfonamide]	1900	–
CN1CCN(c2ccc3[nH]c(C4(N)CCN(c5ncnc6[nH]ccc56)CC4)nc3c2)CC1 [Example 60, 4-(5-(4-methylpiperazin-1-yl)-1H-benzo[d]imidazol-2-yl)-1-(7H-pyrrlo[2,3-d]pyrimidin-4-yl)piperidin-4-amine]	8600	–
NC1(c2nc3cc(OC(F)(F)F)ccc3[nH]2)CCN(c2ncnc3[nH]ccc23)CC1 [Example 61, 1-(7H-Pyrrolo[2,3-d]pyrimidin-4-yl)-4-(5-(trifluoromethoxy)-1H-benzo[d]imidazol-2-yl)piperidin-4-amine]	620	–
CC(C)c1ccc2[nH]c(C3(N)CCN(c4ncnc5[nH]ccc45)CC3)nc2c1 [Example 62, 4(5-isopropyl-1H-benzo[d]imidazol-2-yl)-1-(7H-pyrrolo[2,3-d]pyrimidin-4-yl)piperidin-4-amine]	580	–
COc1ccc(Oc2ccc3[nH]c(C4(N)CCN(c5ncnc6[nH]cnc56)CC4)nc3c2)cc1 [Example 63, 4-(5-(4-methoxyphenoxy)-1H-benzo[d]imidazol-2-yl)-1-(9H-purin-6-yl)piperidin-4-amine]	–	> 960
COc1ccc(Oc2ccc3[nH]c(C4(N)CCN(c5ncnc6[nH]ccc56)CC4)nc3c2)cc1 [Example 64, 4-(5-(4-Methoxyphenoxy)-1H-benzo[d]imidazol-2-yl)-1-(7H-pyrrolo[2,3-d]pyrimidin-4-yl)piperidin-4-amine]	380	–
NC1(c2nc3cc(SC(F)(F)F)ccc3[nH]2)CCN(c2ncnc3[nH]ccc23)CC1 [Example 65, 1-(7H-Pyrrolo[2,3-d]pyrimidin-4-yl)-4-(5-(trifluoromethylthio)-1H-benzo[d]imidazol-2-yl)piperidin-4-amine]	–	420
NCC1(c2nc3cc(Cl)ccc3[nH]2)CCN(c2ncnc3[nH]cnc23)CC1 [Example 66G, (4-(5-chloro-1H-benzo[d]imidazol-2-yl)-1-(9H-purin-6-yl)piperidin-4-yl)methanamine]	110	–
